26 compounds from patent US10975056B2 (GlaxoSmithKline Intellectual Property Development Limited, priority 2016, dated 2021) can be followed below.

Assay [1] has as its target DNMT1 (Homo sapiens, UniProt P26358). The experiment in a line: DNMT1 biochemical activity, breaklight assay and/or SPA assay.
Assay [2] deals with erythroid progenitor cells (EPCs). The experiment in a line: Fetal hemoglobin (HbF) ELISA in day 7 erythroid progenitor cells.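 Further: for fetal hemoglobin induction normalized to vehicle-treated cells.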 To be noted: Homo sapiens, Erythroid progenitor cell, HbF ELISA, day 7 EPCs, 5 days; read-out: EPC ELISA (pEC50 category) (converted). In kind it is cell-based, human. In outline:
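Read-out was OD450 from an HRP/TMB sandwich ELISA on lysates, normalized to DMSO-only control wells. Thawed day 7 EPCs from human marrow CD34+ cells had been treated for 5 days at 37° C with Compound A, 22 concentrations […].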
A general note: ELISA stands for enzyme-linked immunosorbent assay.

Setting [3] is: binned activity in either the breaklight or the SPA assay, read-out: DNMT1 BioChemical (pIC50 category) (converted).
Setting [4] is: binned activity in either the breaklight or the SPA assay.
The mark [5] stands for this setting: breaklight assay and/or SPA assay, repeated experimental runs, read-out: average pIC50 against DNMT1 (converted).

Structures are written as SMILES. “And” between values parts separate entries of the source, which are not always exact repeats. Identical values can stand only once. Counter-ions that a name gives are not always drawn. Like-named read-outs stand apart in the source and are kept apart here.

Chain of DNMT1 (P26358 whole entry, looked up): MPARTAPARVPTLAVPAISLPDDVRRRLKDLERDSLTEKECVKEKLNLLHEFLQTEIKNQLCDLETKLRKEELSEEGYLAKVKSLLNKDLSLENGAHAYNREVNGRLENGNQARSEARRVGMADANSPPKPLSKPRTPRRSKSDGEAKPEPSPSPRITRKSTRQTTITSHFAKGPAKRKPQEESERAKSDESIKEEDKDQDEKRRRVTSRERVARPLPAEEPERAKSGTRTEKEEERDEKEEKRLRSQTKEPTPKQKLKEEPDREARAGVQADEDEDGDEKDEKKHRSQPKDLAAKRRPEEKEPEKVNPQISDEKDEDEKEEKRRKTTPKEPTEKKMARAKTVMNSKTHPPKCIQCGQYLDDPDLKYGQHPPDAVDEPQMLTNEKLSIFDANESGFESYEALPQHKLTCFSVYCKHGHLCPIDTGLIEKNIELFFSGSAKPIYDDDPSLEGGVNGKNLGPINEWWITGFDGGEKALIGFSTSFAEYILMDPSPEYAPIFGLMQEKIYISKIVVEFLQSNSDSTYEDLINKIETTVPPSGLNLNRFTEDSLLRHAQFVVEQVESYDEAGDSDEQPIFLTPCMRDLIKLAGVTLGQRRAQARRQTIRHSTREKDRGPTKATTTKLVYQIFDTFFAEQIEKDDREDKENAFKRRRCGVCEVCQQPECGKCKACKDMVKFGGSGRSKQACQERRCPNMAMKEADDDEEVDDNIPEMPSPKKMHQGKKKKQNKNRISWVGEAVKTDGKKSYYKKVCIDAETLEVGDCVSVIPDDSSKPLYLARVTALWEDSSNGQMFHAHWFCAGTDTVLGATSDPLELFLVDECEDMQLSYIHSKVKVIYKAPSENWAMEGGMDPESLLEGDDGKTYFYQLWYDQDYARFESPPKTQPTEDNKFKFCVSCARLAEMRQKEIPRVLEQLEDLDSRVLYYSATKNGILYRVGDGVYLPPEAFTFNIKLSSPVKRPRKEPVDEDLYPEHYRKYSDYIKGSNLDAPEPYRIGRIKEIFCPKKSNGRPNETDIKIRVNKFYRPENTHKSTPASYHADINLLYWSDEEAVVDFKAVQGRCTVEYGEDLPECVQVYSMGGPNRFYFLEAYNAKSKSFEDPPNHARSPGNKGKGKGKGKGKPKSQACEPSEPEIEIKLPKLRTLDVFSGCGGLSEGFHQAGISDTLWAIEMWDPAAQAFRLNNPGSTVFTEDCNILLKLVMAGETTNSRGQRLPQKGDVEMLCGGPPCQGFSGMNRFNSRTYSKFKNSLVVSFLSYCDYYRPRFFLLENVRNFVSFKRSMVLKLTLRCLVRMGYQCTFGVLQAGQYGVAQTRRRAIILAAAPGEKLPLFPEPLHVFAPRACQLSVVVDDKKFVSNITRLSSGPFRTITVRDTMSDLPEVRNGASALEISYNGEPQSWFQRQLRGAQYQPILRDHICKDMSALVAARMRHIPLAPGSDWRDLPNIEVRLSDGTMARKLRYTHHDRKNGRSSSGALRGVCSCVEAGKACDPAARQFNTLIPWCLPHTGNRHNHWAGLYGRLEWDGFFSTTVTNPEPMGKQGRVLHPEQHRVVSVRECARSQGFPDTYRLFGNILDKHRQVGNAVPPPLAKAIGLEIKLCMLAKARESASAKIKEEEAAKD

Consider `CCc1c(C#N)c(SC(C(N)=O)c2cc(F)ncc2F)nc(N2CCCN(C)CC2)c1C#N` (stereo not drawn) [Example 249, 2-((3,5-Dicyano-4-ethyl-6-(4-methyl-1,4-diazepan-1-yl)pyridin-2-yl)thio)-2-(2,5-difluoropyridin-4-yl)acetamide], for which, in assay [1] (setting [3]), the IC50 was 1000 to 31600 nM. Besides, the EC50 in assay [2] is > 31600 nM.
In the case of `CCc1c(C#N)c(SC(C(N)=O)c2ccccc2)nc(N2CC[C@@H](N(C)C)C2)c1C#N` (stereo partly drawn) [Example 536, 2-((3,5-dicyano-6-((R)-3-(dimethylamino)pyrrolidin-1-yl)-4-ethylpyridin-2-yl)thio)-2-phenylacetamide], the “DNMT1 BioChemical (pIC50 category)” value in assay [1] (setting [4]) is “D (Category D: ≥6.5)”. In addition, the EC50 in assay [2] is 316 to 1000 nM.
For `CCc1c(C#N)c(S[C@@H](C(N)=O)c2ccccc2)nc(N2CC[C@@](O)(CO)C2)c1C#N` [Example 654, (R)-2-((3,5-dicyano-4-ethyl-6-((S)-3-hydroxy-3-(hydroxymethyl)pyrrolidin-1-yl)pyridin-2-yl)thio)-2-phenylacetamide] the same measures were “D (Category D: ≥6.5)” and 1000 to 31600 nM.
Regarding `CCc1c(C#N)c(SC(C(N)=O)c2ccccc2)nc(N(C)CC(=O)NC[C@@H](O)CO)c1C#N` (stereo partly drawn) [Example 666, 2-((6-((2-amino-2-oxo-1-phenylethyl)thio)-3,5-dicyano-4-ethylpyridin-2-yl)(methyl)amino)-N-((R)-2,3-dihydroxypropyl)acetamide], the “DNMT1 BioChemical (pIC50 category)” value in assay [1] (setting [4]) is reported as “D (Category D: ≥6.5)”. Moreover, the EC50 in assay [2] is 1000 to 31600 nM.
For `CCc1c(C#N)c(SC(C(N)=O)c2ccccc2)nc(N2CC[C@H](N(C)C)C2)c1C#N` (stereo partly drawn) [Example 539, 2-((3,5-dicyano-6-((S)-3-(dimethylamino)pyrrolidin-1-yl)-4-ethylpyridin-2-yl)thio)-2-phenylacetamide] the same measures were “D (Category D: ≥6.5)” and 1000 to 31600 nM.
For `CCc1c(C#N)c(S[C@H](C)c2ccc(N(C)S(C)(=O)=O)cc2)nc(N2CCC(N)CC2)c1C#N` (single isomer, unassigned) [Example 681, N-(4-(1-((6-(4-aminopiperidin-1-yl)-3,5-dicyano-4-ethylpyridin-2-yl)thio)ethyl)phenyl)-N-methylmethanesulfonamide] the same measures were “D (Category D: ≥6.5)” and 1000 to 31600 nM.
Taken in the same sequence, the figures for `CCc1c(C#N)c(SC(C(N)=O)c2ccccc2)nc(N(C)CCNC)c1C#N` (stereo not drawn) [Example 470, 2-((3,5-dicyano-4-ethyl-6-(methyl(2-(methylamino)ethyl)amino)pyridin-2-yl)thio)-2-phenylacetamide] were “D (Category D: ≥6.5)” and < 316 nM.
Turning to `CCc1c(C#N)c(SC(C(N)=O)c2ccccc2)nc(N(C)CC(=O)N(C)CC(C)(C)CO)c1C#N` (stereo not drawn) [Example 615, 2-((6-((2-amino-2-oxo-1-phenylethyl)thio)-3,5-dicyano-4-ethylpyridin-2-yl)(methyl)amino)-N-(3-hydroxy-2,2-dimethylpropyl)-N-methylacetamide], the “DNMT1 BioChemical (pIC50 category)” value in assay [1] (setting [4]) was “D (Category D: ≥6.5)”. Besides, the EC50 in assay [2] is < 316 nM.
As to `N#Cc1c(SC(C(N)=O)c2ccccc2)nc(N2CCC(NCCO)CC2)c(C#N)c1C1CC1` (stereo not drawn) [Example 657, 2-((3,5-dicyano-4-cyclopropyl-6-(4-((2-hydroxyethyl)amino)piperidin-1-yl)pyridin-2-yl)thio)-2-phenylacetamide], the “DNMT1 BioChemical (pIC50 category)” value in assay [1] (setting [4]) is recorded as “D (Category D: ≥6.5)”. For the same compound, the EC50 in assay [2] was 1000 to 31600 nM.
For `CCc1c(C#N)c(SC(C(N)=O)c2ccccc2)nc(N(C)CCN2[C@@H](C)CC[C@@H]2C)c1C#N` (stereo partly drawn) [Example 490, 2-((3,5-dicyano-6-((2-((2S,5S)-2,5-dimethylpyrrolidin-1-yl)ethyl)(methyl)amino)-4-ethylpyridin-2-yl)thio)-2-phenylacetamide] the same measures were “D (Category D: ≥6.5)” and 316 to 1000 nM.
For `CCc1c(C#N)c(SC(C(N)=O)c2ccccc2)nc(N2CCC(NC(=O)[C@@H](C)N)CC2)c1C#N` (stereo partly drawn) [Example 366, (2R)-2-Amino-N-(1-(6-((2-amino-2-oxo-1-phenylethyl)thio)-3,5-dicyano-4-ethylpyridin-2-yl)piperidin-4-yl)propanamide, Hydrochloride], the “DNMT1 BioChemical (pIC50 category)” value in assay [1] (setting [4]) is given as “D (Category D: ≥6.5)”. Further, in assay [2], the EC50 was < 316 nM.
`CCc1c(C#N)c(SCc2ccc(CNC(C)=O)cc2)nc(N2CCC(O)C2)c1C#N` (stereo not drawn) [Example 331, N-(4-(((3,5-Dicyano-4-ethyl-6-(3-hydroxypyrrolidin-1-yl)pyridin-2-yl)thio)methyl)benzyl)acetamide]: the IC50 in assay [1] (setting [3]) is 316 to 1000 nM. Also, the EC50 in assay [2] is > 31600 nM.
Take `CCc1c(C#N)c(SC(C(N)=O)c2ccccc2)nc(N2CCC(NCc3cccc(OC)n3)CC2)c1C#N` (stereo not drawn) [Example 456, 2-((3,5-dicyano-4-ethyl-6-(4-(((6-methoxypyridin-2-yl)methyl)amino)piperidin-1-yl)pyridin-2-yl)thio)-2-phenylacetamide]: in assay [1] (setting [4]), the “DNMT1 BioChemical (pIC50 category)” value is on record as “D (Category D: ≥6.5)”. Besides, the EC50 in assay [2] is < 316 nM.
Regarding `N#Cc1c(SC(C(N)=O)c2ccccc2)nc(N2CCC(O)(CN)CC2)c(C#N)c1C1CC1` (stereo not drawn) [Example 23], the “DNMT1 BioChemical (pIC50 category)” value in assay [1] (setting [4]) is given as “D (Category D: ≥6.5)”. Also, the EC50 in assay [2] was 1000 to 31600 nM.
Taken in the same sequence, the figures for `CCc1c(C#N)c(SC(C(N)=O)c2ccccc2)nc(N2CC(COC(=O)[C@@H](N)C(C)C)C2)c1C#N` (stereo partly drawn) [Example 277] were “D (Category D: ≥6.5)” and 1000 to 31600 nM.
Taken in the same sequence, the figures for `CCc1c(C#N)c(S[C@@H](C(N)=O)c2ccccc2)nc(N2CC[C@@H](NC(=O)OC(C)(C)C)[C@H](O)C2)c1C#N` [Example 542, tert-butyl((3R,4R)-1-(6-(((R)-2-amino-2-oxo-1-phenylethyl)thio)-3,5-dicyano-4-ethylpyridin-2-yl)-3-hydroxypiperidin-4-yl)carbamate*] were “D (Category D: ≥6.5)” and 316 to 1000 nM.
Taken in the same sequence, the figures for `CCc1c(C#N)c(SC(C(N)=O)c2ccccc2)nc(N2CCC(N3CCC[C@@H]3CO)CC2)c1C#N` (single isomer, unassigned) [Example 464] were “D (Category D: ≥6.5)” and < 316 nM.
`CCc1c(C#N)c(SC(C(N)=O)c2ccccc2)nc(N2CCC(O)(CN)CC2)c1C#N` (stereo not drawn) [Example 243, 2-((6-(4-(Aminomethyl)-4-hydroxypiperidin-1-yl)-3,5-dicyano-4-ethylpyridin-2-yl)thio)-2-phenylacetamide, Trifluoroacetic Acid Salt]: in assay [1] (setting [4]), the “DNMT1 BioChemical (pIC50 category)” value is “D (Category D: ≥6.5)”. The EC50 in assay [2] was 316 to 1000 nM.
Regarding `CCc1c(C#N)c(SCc2ccc3c(c2)C(OC)(OC)C(=O)N3)nc(N2CCCN(C)CC2)c1C#N` [Example 347, 2-(((3,3-Dimethoxy-2-oxoindolin-5-yl)methyl)thio)-4-ethyl-6-(4-methyl-1,4-diazepan-1-yl)pyridine-3,5-dicarbonitrile], the IC50 in assay [1] (setting [3]) was 316 to 1000 nM. Moreover, the EC50 in assay [2] was 1000 to 31600 nM.
For `CCc1c(C#N)c(SCc2ccccc2)nc(N2CCC(NC(=O)C(C)(C)N)CC2)c1C#N` [Example 95, 2-Amino-N-(1-(6-(benzylthio)-3,5-dicyano-4-ethylpyridin-2-yl)piperidin-4-yl)-2-methylpropanamide, Formic Acid Salt] the same measures were 316 to 1000 nM and 1000 to 31600 nM.
`CCc1c(C#N)c(SCc2ccc(NC(=O)OC(C)(C)C)cc2)nc(N2CCCN(C)CC2)c1C#N` [Example 296, tert-Butyl (4-(((3,5-dicyano-4-ethyl-6-(4-methyl-1,4-diazepan-1-yl)pyridin-2-yl)thio)methyl)phenyl)carbamate]: in assay [1] (setting [3]), the IC50 is 316 to 1000 nM. The EC50 in assay [2] is > 31600 nM.
For `CCc1c(C#N)c(SCc2ccc(CNC(C)=O)cc2)nc(N(C)CCO)c1C#N` [Example 103, N-(4-(((3,5-Dicyano-4-ethyl-6-((2-hydroxyethyl)(methyl)amino)pyridin-2-yl)thio)methyl)benzyl)acetamide], the IC50 in assay [1] (setting [3]) is 1000 to 31600 nM; in assay [1] (setting [5]), ≥ 1000 nM. Also, in assay [2], the EC50 was 1000 to 31600 nM.
With `CCc1c(C#N)c(SCc2ccc(N(C)S(C)(=O)=O)cc2)nc(N2CC[C@H](CNC(=O)CN)C2)c1C#N` [Example 650, (R)-2-amino-N-((1-(3,5-dicyano-4-ethyl-6-((4-(N-methylmethylsulfonamido)benzyl)thio)pyridin-2-yl)pyrrolidin-3-yl)methyl)acetamide], the “DNMT1 BioChemical (pIC50 category)” value in assay [1] (setting [4]) is given as “D (Category D: ≥6.5)”. Also, the EC50 in assay [2] was 1000 to 31600 nM.
On to `CCc1c(C#N)c(SC(C(N)=O)c2cccc(N3CCCC3)c2)nc(N2CCCN(C)CC2)c1C#N` (stereo not drawn) [Example 247, 2-((3,5-Dicyano-4-ethyl-6-(4-methyl-1,4-diazepan-1-yl)pyridin-2-yl)thio)-2-(3-(pyrrolidin-1-yl)phenyl)acetamide], for which the IC50 is 1000 to 31600 nM in assay [1] (setting [3]); ≥ 1000 nM and 1580 nM in assay [1] (setting [5]). Further, the EC50 in assay [2] was 316 to 1000 nM.
Consider `CCc1c(C#N)c(SCc2ccc(C(=O)O)cc2)nc(N2CCCN(C)CC2)c1C#N` [Example 73, 4-(((3,5-Dicyano-4-ethyl-6-(4-methyl-1,4-diazepan-1-yl)pyridin-2-yl)thio)methyl)benzoic acid], for which the IC50 in assay [1] (setting [3]) was 316 to 1000 nM. In assay [2], the EC50 is > 31600 nM.
Turning to `CCc1c(C#N)c(SC(C(N)=O)c2ccccc2)nc(N2CCC3(CCN(C)C3)CC2)c1C#N` (stereo not drawn) [Example 215, 2-((3,5-Dicyano-4-ethyl6-(2-methyl-2,8-diazaspiro[4.5]decan-8-yl)pyridin-2-yl)thio)-2-phenylacetamide], the “DNMT1 BioChemical (pIC50 category)” value in assay [1] (setting [4]) is “D (Category D: ≥6.5)”. In addition, in assay [2], the EC50 is < 316 nM.
